EP0377642B1, “HERBICIDES FOR WEED CONTROL IN RICE” (E.I. DU PONT DE NEMOURS AND COMPANY, priority 1987, dated 1989)
Where two headings read alike, the source gives them in different places.

Experiments:
Type in all cases: in vivo
[1] = test system: transplanted rice (var. Nihonbare); assay: Crop tolerance of transplanted rice, combinations with Thiobencarb, Dimepiperate, Esprocarb and Dymron (Table 15)
Description: (§1) Methyl 2-[[[[(4-methoxy-6-methyl-1,3,5-triazin-2-yl)amino]carbonyl]amino]sulfonyl]benzoate (Compound 1) and mixtures thereof with other compounds were applied as a spray (using a hand sprayer) to rice (either transplanted or direct seeded) in several rice growing areas in Southeast Asia and in the U.S. Tables 1-28 contain the results of these tests and clearly exemplify the utility of this invention. The details of each application are included in the appropriate table. [drawing 2]

rice [2] = assay: Effects in combination with Thiobencarb and Bensulfuron Methyl on rice growth (Table 22); conditions: rate 75 g ai/ha; var. Koshihikari, applied 7 days after transplanting, rated 21 days after application
Description: as §1

FIMBRISTYLIS MILIACEA [3] = assay: Herbicidal efficacy alone and with 2,4-D in Thailand (Table 3); conditions: 600 GAI/HA, 6 weeks after application
Description: as §1

rice [4] = assay: Effects on rice growth in Thailand, phytotoxicity (Table 2); conditions: 600 GAI/HA, scale 0-10
Description: as §1

rice [5] = assay: Effects on rice growth in Thailand, phytotoxicity (Table 4); conditions: 600 GAI/HA, scale 0-10
Description: as §1

direct seeded rice = conditions: 1,500 GM.A.I./HA; for PHYTO at 2WAA: scale 0-10
Description: as §1

Cyperus difformis = assay: Field test applied at 7 DAS in direct seeded rice (Table 11); conditions: 1,500 GM.A.I./HA, scale 0-10
Description: as §1

Sphenoclea zeylanica [6] = assay: as above; conditions: 1,500 GM.A.I./HA, scale 0-10
Description: as §1

Cyperus iria [7] = assay: Field test applied at 18 DAS in direct seeded rice (Table 12); conditions: 1,500 GM.A.I./HA, scale 0-10
Description: as §1

FIMBRISTYLIS MILIACEA [8] = assay: as above; conditions: 1,500 GM.A.I./HA, scale 0-10
Description: as §1

Jussiaea linifolia = assay: as above; conditions: 1,500 GM.A.I./HA, scale 0-10
Description: as §1

Sphenoclea zeylanica [9] = assay: as above; conditions: 1,500 GM.A.I./HA, scale 0-10
Description: as §1

Cyperus iria [10] = assay: Field test applied at 25 DAS in direct seeded rice (Table 13); conditions: 1,500 GM.A.I./HA, scale 0-10
Description: as §1

Sphenoclea zeylanica [11] = assay: as above; conditions: 1,500 GM.A.I./HA, scale 0-10
Description: as §1

[12] = 2100 GAI/HA, 15 days after application
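Wherever YIELD is given: yield in Tons/ha.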

CC(C)(SC(=O)N1CCCCC1)c1ccccc1 [Dimepiperate, S-1-methyl-1-phenylethylpiperidine-1-carbothioate]
CROP TOLERANCE (Nihonbare) PH, plant height relative to untreated check ([1]; in vivo): 102% | CROP TOLERANCE (Nihonbare) VA, visual crop injury ([1]; in vivo): 0%

COC(=O)c1ccccc1CS(=O)(=O)NC(=O)Nc1nc(OC)cc(OC)n1
CROP TOLERANCE DW (Dry weight relative to untreated check) (rice [2]): 76% | CROP TOLERANCE PH (Plant height relative to untreated check) (rice [2]): 84% | CROP TOLERANCE VA (Visual crop injury) (rice [2]): 3.5%

CCCCOC(=O)COc1ccc(Cl)cc1Cl [2,4-D (BUTYL ESTER), reference compound]
FIMBRISTYLIS MILIACEA CONTROL (FIMBRISTYLIS MILIACEA [3]; applied 7 DAS): 94% | FIMBRISTYLIS MILIACEA CONTROL (FIMBRISTYLIS MILIACEA [3]; applied 14 DAS): 98% | FIMBRISTYLIS MILIACEA CONTROL (FIMBRISTYLIS MILIACEA [3]; applied 21 DAS): 60% | FIMBRISTYLIS MILIACEA CONTROL (FIMBRISTYLIS MILIACEA [3]; applied 28 DAS): 43%

CCN(C(=O)SCc1ccccc1)C(C)C(C)C (stereo not drawn) [Esprocarb, S-benzyl-N-ethyl-N-(1,2-dimethyl)-propylthiol carbamate]
CROP TOLERANCE (Nihonbare) DW, dry weight relative to untreated check [1, 12]: 94% | CROP TOLERANCE (Nihonbare) PH, plant height relative to untreated check [1, 12]: 92% | CROP TOLERANCE (Nihonbare) VA, visual crop injury [1, 12]: 0%

O=C([O-])COc1ccc(Cl)cc1Cl.[Na+] [2,4-D (SODIUM SALT), 2,4-dichlorophenoxyacetic acid, sodium salt]
PHYTOTOXICITY (rice [4]; applied 7 DAS): 2.33 | PHYTOTOXICITY (rice [4]; applied 14 DAS): 1.33 | PHYTOTOXICITY (rice [4]; applied 21 DAS): 0 | PHYTOTOXICITY (rice [4]; applied 28 DAS): 0 | FIMBRISTYLIS MILIACEA CONTROL (FIMBRISTYLIS MILIACEA [3]; applied 7 DAS): 96% | FIMBRISTYLIS MILIACEA CONTROL (FIMBRISTYLIS MILIACEA [3]; applied 14 DAS): 95% | FIMBRISTYLIS MILIACEA CONTROL (FIMBRISTYLIS MILIACEA [3]; applied 21 DAS): 93% | FIMBRISTYLIS MILIACEA CONTROL (FIMBRISTYLIS MILIACEA [3]; applied 28 DAS): 98% | PHYTOTOXICITY (rice [5]; applied 7 DAS): 5.0 | PHYTOTOXICITY (rice [5]; applied 14 DAS): 3.67 | PHYTOTOXICITY (rice [5]; applied 21 DAS): 3.0 | PHYTOTOXICITY (rice [5]; applied 28 DAS): 1 | YIELD (direct seeded rice; 7 DAS): 4.13 TONS/HA | PHYTO at 2WAA (direct seeded rice; 7 DAS): 0 | YIELD (direct seeded rice; 18 DAS): 4.59 TONS/HA | PHYTO at 2WAA (direct seeded rice; 18 DAS): 0 | WEED CONTROL at 6 WAA CD (Cyperus difformis): 10 | WEED CONTROL at 6 WAA SZ (Sphenoclea zeylanica [6]): 6.0 | WEED CONTROL at 6 WAA CI (Cyperus iria [7]): 9.33 | WEED CONTROL at 6 WAA FM (FIMBRISTYLIS MILIACEA [8]): 9.33 | WEED CONTROL at 6 WAA JL (Jussiaea linifolia): 10 | WEED CONTROL at 6 WAA SZ (Sphenoclea zeylanica [9]): 4.67 | WEED CONTROL at 6 WAA CI (Cyperus iria [10]): 10 | WEED CONTROL at 6 WAA SZ (Sphenoclea zeylanica [11]): 6.67
